Measurements reported in paper PMC5218480 (PLoS ONE, 2017).

Test system: MV-4-11 cells
Test: Gene expression microarray analysis (Affymetrix PrimeView) and GSEA
Type: cell-based, human
Set-up: RFU PODN (11730768_x_at) / Fold change /veh PODN (11730768_x_at) / RFU LINC00158 (11744669_a_at) / Fold change /veh LINC00158 (11744669_a_at) / RFU DUSP10 (11751237_a_at) / Fold change /veh DUSP10 (11751237_a_at) / RFU ID3 (11757404_x_at) / Fold change /veh ID3 (11757404_x_at) / RFU PLEKHG5 (11737974_s_at) / Fold change /veh PLEKHG5 (11737974_s_at) / RFU LRRC4B (11730491_at) / Fold change /veh LRRC4B (11730491_at) / RFU GIMAP4 (11747438_a_at) / Fold change /veh GIMAP4 (11747438_a_at) / RFU KRT8 (11758183_x_at) / Fold change /veh KRT8 (11758183_x_at) / RFU CNN1 (11734310_a_at) / Fold change /veh CNN1 (11734310_a_at) / RFU VPS37D (11726825_at) / Fold change /veh VPS37D (11726825_at) / RFU C10orf10 (11716522_x_at) / Fold change /veh C10orf10 (11716522_x_at) / RFU KIR2DL2 /// KIR2DL4 /// KIR2DL5A /// KIR2DL5B /// KIR2DS1 /// KIR2DS2 /// KIR2DS3 /// KIR2DS4 /// KIR3DL3 /// KIR3DL3 /// KIR3DS1 (11738374_at) / Fold change /veh KIR2DL2 /// KIR2DL4 /// KIR2DL5A /// KIR2DL5B /// KIR2DS1 /// KIR2DS2 /// KIR2DS3 /// KIR2DS4 /// KIR3DL3 /// KIR3DL3 /// KIR3DS1 (11738374_at) / RFU C1QL1 (11718748_at) / Fold change /veh C1QL1 (11718748_at) / RFU TMPRSS4 (11747572_a_at) / Fold change /veh TMPRSS4 (11747572_a_at) / RFU HAMP (11756126_x_at) / Fold change /veh HAMP (11756126_x_at) / RFU RNFT2 (11725882_a_at) / Fold change /veh RNFT2 (11725882_a_at) / RFU NR4A2 (11747474_a_at) / Fold change /veh NR4A2 (11747474_a_at) / RFU ABCC12 (11746883_a_at) / Fold change /veh ABCC12 (11746883_a_at) / RFU TMEM136 (11760407_x_at) / Fold change /veh TMEM136 (11760407_x_at) / RFU CLDN22 /// WWC2 (11732394_at) / Fold change /veh CLDN22 /// WWC2 (11732394_at) / RFU HLA-DPB1 (11760878_x_at) / Fold change /veh HLA-DPB1 (11760878_x_at) / RFU SPINT1 (11716480_a_at) / Fold change /veh SPINT1 (11716480_a_at) / RFU GAP43 (11754022_s_at) / Fold change /veh GAP43 (11754022_s_at) / RFU A4GNT (11735810_at) / Fold change /veh A4GNT (11735810_at) / RFU PRB3 (11715151_x_at) / Fold change /veh PRB3 (11715151_x_at) / RFU TUBB4B (11761932_at) / Fold change /veh TUBB4B (11761932_at) / RFU CAPN14 (11732068_a_at) / Fold change /veh CAPN14 (11732068_a_at) / RFU TMCC2 (11721928_a_at) / Fold change /veh TMCC2 (11721928_a_at) / RFU IRGQ (11745062_a_at) / Fold change /veh IRGQ (11745062_a_at) / RFU FAM174B (11720279_a_at) / Fold change /veh FAM174B (11720279_a_at) / RFU TMPRSS4 (11748680_a_at) / Fold change /veh TMPRSS4 (11748680_a_at) / RFU FAM212B (11763350_a_at) / Fold change /veh FAM212B (11763350_a_at) / RFU PLEKHG5 (11743358_a_at) / Fold change /veh PLEKHG5 (11743358_a_at) / RFU ZSCAN30 (11745921_a_at) / Fold change /veh ZSCAN30 (11745921_a_at) / RFU CMKLR1 (11741424_a_at) / Fold change /veh CMKLR1 (11741424_a_at) / RFU LOC101060620 /// MAPK8IP1 (11723275_at) / Fold change /veh LOC101060620 /// MAPK8IP1 (11723275_at) / RFU SPTSSB (11747773_x_at) / Fold change /veh SPTSSB (11747773_x_at) / RFU PRSS12 (11739890_at) / Fold change /veh PRSS12 (11739890_at) / RFU BIN1 (11741810_x_at) / Fold change /veh BIN1 (11741810_x_at) / RFU WNT11 (11732464_a_at) / Fold change /veh WNT11 (11732464_a_at) / RFU C10orf10 (11716521_a_at) / Fold change /veh C10orf10 (11716521_a_at) / RFU C5orf56 (11738089_at) / Fold change /veh C5orf56 (11738089_at) / RFU CYB561 (11721691_x_at) / Fold change /veh CYB561 (11721691_x_at) / RFU ANKRD19P (11752326_a_at) / Fold change /veh ANKRD19P (11752326_a_at) / RFU OR2T12 /// OR2T33 /// OR2T8 (11738714_s_at) / Fold change /veh OR2T12 /// OR2T33 /// OR2T8 (11738714_s_at) / RFU VCAN (11748164_a_at) / Fold change /veh VCAN (11748164_a_at) / RFU JSRP1 (11732532_at) / Fold change /veh JSRP1 (11732532_at) / RFU KRTAP10-11 (11738290_x_at) / Fold change /veh KRTAP10-11 (11738290_x_at) / RFU MYO3A (11730013_a_at) / Fold change /veh MYO3A (11730013_a_at) / RFU EBF3 (11725865_a_at) / Fold change /veh EBF3 (11725865_a_at) / RFU CAMK2N1 (11719241_x_at) / Fold change /veh CAMK2N1 (11719241_x_at) / RFU C5orf56 (11738088_a_at) / Fold change /veh C5orf56 (11738088_a_at) / RFU OLFML3 (11715873_a_at) / Fold change /veh OLFML3 (11715873_a_at) / RFU LOC100653217 /// NTM (11731650_a_at) / Fold change /veh LOC100653217 /// NTM (11731650_a_at) / RFU MAPK11 (11762145_a_at) / Fold change /veh MAPK11 (11762145_a_at) / RFU FIZ1 (11724087_x_at) / Fold change /veh FIZ1 (11724087_x_at) / RFU OASL (11726364_x_at) / Fold change /veh OASL (11726364_x_at) / RFU SOX15 (11748057_x_at) / Fold change /veh SOX15 (11748057_x_at) / RFU CD79A (11719716_a_at) / Fold change /veh CD79A (11719716_a_at) / RFU HIST1H1D (11736915_at) / Fold change /veh HIST1H1D (11736915_at) / RFU CASKIN2 (11723855_a_at) / Fold change /veh CASKIN2 (11723855_a_at) / RFU LOC730098 (11760151_x_at) / Fold change /veh LOC730098 (11760151_x_at) / RFU OR4N2 (11742367_at) / Fold change /veh OR4N2 (11742367_at) / RFU PRRT2 (11749266_a_at) / Fold change /veh PRRT2 (11749266_a_at) / RFU SNX32 (11753110_a_at) / Fold change /veh SNX32 (11753110_a_at) / RFU CDHR5 (11726645_a_at) / Fold change /veh CDHR5 (11726645_a_at) / RFU RCAN1 (11760418_a_at) / Fold change /veh RCAN1 (11760418_a_at) / RFU FAM167A (11723789_a_at) / Fold change /veh FAM167A (11723789_a_at) / RFU FAM26E (11764081_at) / Fold change /veh FAM26E (11764081_at) / RFU ISYNA1 (11749810_s_at) / Fold change /veh ISYNA1 (11749810_s_at) / RFU ACY1 (11761880_at) / Fold change /veh ACY1 (11761880_at) / RFU 11764098_at / Fold change /veh 11764098_at / RFU SAMD14 (11745864_x_at) / Fold change /veh SAMD14 (11745864_x_at) / RFU NPB (11741838_a_at) / Fold change /veh NPB (11741838_a_at) / RFU TMPRSS6 (11731388_a_at) / Fold change /veh TMPRSS6 (11731388_a_at) / RFU KRTAP10-2 (11738614_at) / Fold change /veh KRTAP10-2 (11738614_at) / RFU ARHGAP8 /// PRR5-ARHGAP8 (11727945_x_at) / Fold change /veh ARHGAP8 /// PRR5-ARHGAP8 (11727945_x_at) / RFU KRTAP5-7 /// NADSYN1 (11734609_at) / Fold change /veh KRTAP5-7 /// NADSYN1 (11734609_at) / RFU RASL12 (11751679_a_at) / Fold change /veh RASL12 (11751679_a_at) / RFU CDKN2B (11736163_a_at) / Fold change /veh CDKN2B (11736163_a_at) / RFU PRF1 (11729649_at) / Fold change /veh PRF1 (11729649_at) / RFU, ZNF638 /// ZNF638-IT1 / Fold change vs veh, ZNF638 /// ZNF638-IT1 / RFU, PANK3 / Fold change vs veh, PANK3 / RFU, SH3YL1 / Fold change vs veh, SH3YL1 / RFU, ZEB2 / Fold change vs veh, ZEB2 / RFU, NRIP1 / Fold change vs veh, NRIP1 / RFU, PTTG1IP / Fold change vs veh, PTTG1IP / RFU, CAPN2 / Fold change vs veh, CAPN2 / RFU, MED14 / Fold change vs veh, MED14 / RFU, SNORA58 / Fold change vs veh, SNORA58 / RFU, C1orf63 / Fold change vs veh, C1orf63 / RFU, LRRFIP1 / Fold change vs veh, LRRFIP1 / RFU, NDUFAF7 / Fold change vs veh, NDUFAF7 / RFU, SLC12A2 / Fold change vs veh, SLC12A2 / RFU, IBTK / Fold change vs veh, IBTK / RFU, ESF1 / Fold change vs veh, ESF1 / Fold change vs veh, TMEM50B / RFU, TAOK1 / Fold change vs veh, TAOK1 / RFU, ACBD3 / Fold change vs veh, ACBD3 / RFU, TMA16 / Fold change vs veh, TMA16 / RFU, RWDD3 / Fold change vs veh, RWDD3 / RFU, BCAT1 / Fold change vs veh, BCAT1 / RFU, EDEM3 / Fold change vs veh, EDEM3 / RFU, TMEM33 / Fold change vs veh, TMEM33 / RFU, WDR75 / Fold change vs veh, WDR75 / RFU, AHCTF1 / Fold change vs veh, AHCTF1 / RFU, TFRC / Fold change vs veh, TFRC / RFU, ZDHHC17 / Fold change vs veh, ZDHHC17 / RFU, NOM1 / Fold change vs veh, NOM1 / RFU, ARL8B / Fold change vs veh, ARL8B / RFU, ZBTB11 / Fold change vs veh, ZBTB11 / RFU, TAMM41 / Fold change vs veh, TAMM41 / RFU, KIAA1704 /// LOC100996395 / Fold change vs veh, KIAA1704 /// LOC100996395 / RFU, ING1 / Fold change vs veh, ING1 / RFU, TRMT61B / Fold change vs veh, TRMT61B / RFU, FUBP3 / Fold change vs veh, FUBP3 / RFU, TP53 / Fold change vs veh, TP53 / RFU, TNKS2 / Fold change vs veh, TNKS2 / RFU, ZFP14 / Fold change vs veh, ZFP14 / RFU, ACTR2 / Fold change vs veh, ACTR2 / RFU, PPP3R1 / Fold change vs veh, PPP3R1 / RFU, PIK3R1 / Fold change vs veh, PIK3R1 / RFU, HNRNPA1 / Fold change vs veh, HNRNPA1 / RFU, RNF170 / Fold change vs veh, RNF170 / RFU, ZNF28 / Fold change vs veh, ZNF28 / RFU, RNGTT / Fold change vs veh, RNGTT / RFU, OGT / Fold change vs veh, OGT / RFU, BRD1 / Fold change vs veh, BRD1 / RFU, MARS / Fold change vs veh, MARS / RFU, ZNF655 / Fold change vs veh, ZNF655 / RFU, FAHD1 / Fold change vs veh, FAHD1 / RFU, BDP1 / Fold change vs veh, BDP1 / RFU, LRRCC1 / Fold change vs veh, LRRCC1 / RFU, ARID1A / Fold change vs veh, ARID1A / RFU, ZNF146 / Fold change vs veh, ZNF146 / RFU, ZNF330 / Fold change vs veh, ZNF330 / RFU, GPN3 / Fold change vs veh, GPN3 / RFU, C9orf123 / Fold change vs veh, C9orf123 / RFU, N4BP2L2 / Fold change vs veh, N4BP2L2 / RFU, ARFIP1 / Fold change vs veh, ARFIP1 / RFU, FAM179B / Fold change vs veh, FAM179B / RFU, BCL10 / Fold change vs veh, BCL10 / RFU, UHRF1BP1L / Fold change vs veh, UHRF1BP1L / RFU, BET1 / Fold change vs veh, BET1 / RFU, CNOT2 / Fold change vs veh, CNOT2 / RFU, ZNF268 / Fold change vs veh, ZNF268 / Fold change vs veh, ZNF507 / RFU, DGCR2 / Fold change vs veh, DGCR2 / RFU, WDSUB1 / Fold change vs veh, WDSUB1 / Fold change vs veh, HSP90B1 /// MIR3652 / RFU, ADSS / Fold change vs veh, ADSS / RFU, GK / Fold change vs veh, GK / RFU, ZNF148 / Fold change vs veh, ZNF148 / RFU, TAF9 / Fold change vs veh, TAF9 / RFU, SLC1A5 / Fold change vs veh, SLC1A5 / RFU, SLMO2 / Fold change vs veh, SLMO2 / RFU, ABCC4 / Fold change vs veh, ABCC4 / RFU, LOC101060439 /// RAP1B / Fold change vs veh, LOC101060439 /// RAP1B / RFU, RFX7 / Fold change vs veh, RFX7 / RFU, GTPBP10 / Fold change vs veh, GTPBP10 / RFU, CNEP1R1 / Fold change vs veh, CNEP1R1 / RFU, BIVM-ERCC5 /// ERCC5 / Fold change vs veh, BIVM-ERCC5 /// ERCC5 / RFU, ILF3 / Fold change vs veh, ILF3 / RFU 11762660_at / Fold change /veh 11762660_at / RFU VCAN (11757783_s_at) / Fold change /veh VCAN (11757783_s_at) / RFU DDX43 (11728927_at) / Fold change /veh DDX43 (11728927_at) / RFU KRT8 (11758188_x_at) / Fold change /veh KRT8 (11758188_x_at) / RFU NKD1 (11759106_at) / Fold change /veh NKD1 (11759106_at) / RFU SRD5A1 (11742802_a_at) / Fold change /veh SRD5A1 (11742802_a_at) / RFU TPSAB1 /// TPSB2 (11721975_s_at) / Fold change /veh TPSAB1 /// TPSB2 (11721975_s_at) / RFU GSTM3 (11746129_a_at) / Fold change /veh GSTM3 (11746129_a_at) / RFU IL23R (11737362_x_at) / Fold change /veh IL23R (11737362_x_at) / RFU TMEM51 (11727254_a_at) / Fold change /veh TMEM51 (11727254_a_at) / RFU PIWIL2 (11732686_x_at) / Fold change /veh PIWIL2 (11732686_x_at) / RFU ORM1 (11744905_x_at) / Fold change /veh ORM1 (11744905_x_at) / RFU CCDC152 (11743942_at) / Fold change /veh CCDC152 (11743942_at) / RFU ECM1 (11717891_a_at) / Fold change /veh ECM1 (11717891_a_at) / RFU IL23R (11748794_a_at) / Fold change /veh IL23R (11748794_a_at) / RFU TNFAIP8L3 (11732012_x_at) / Fold change /veh TNFAIP8L3 (11732012_x_at) / RFU MBOAT4 (11741988_at) / Fold change /veh MBOAT4 (11741988_at) / RFU 11764193_at / Fold change /veh 11764193_at / RFU TMEM53 (11763286_at) / Fold change /veh TMEM53 (11763286_at) / RFU MAGEB2 (11727129_at) / Fold change /veh MAGEB2 (11727129_at) / RFU TMEM200A (11744735_a_at) / Fold change /veh TMEM200A (11744735_a_at) / RFU CCDC152 (11751479_a_at) / Fold change /veh CCDC152 (11751479_a_at) / RFU FAM211A (11726209_a_at) / Fold change /veh FAM211A (11726209_a_at) / RFU RGS16 (11746705_a_at) / Fold change /veh RGS16 (11746705_a_at) / RFU VCAN (11755009_s_at) / Fold change /veh VCAN (11755009_s_at) / RFU RHOB (11743442_s_at) / Fold change /veh RHOB (11743442_s_at) / RFU RGS16 (11720943_a_at) / Fold change /veh RGS16 (11720943_a_at) / RFU RGS16 (11720944_at) / Fold change /veh RGS16 (11720944_at) / RFU, VPS4B / Fold change vs veh, VPS4B / RFU, CREB1 / Fold change vs veh, CREB1 / RFU, DNAJC13 / Fold change vs veh, DNAJC13 / RFU, GNAQ / Fold change vs veh, GNAQ / RFU, CDK5R1 / Fold change vs veh, CDK5R1 / RFU, ZRANB3 / Fold change vs veh, ZRANB3 / RFU, CUL4A / Fold change vs veh, CUL4A / RFU, CCNY / Fold change vs veh, CCNY / RFU, UFL1 / Fold change vs veh, UFL1 / RFU, COG3 / Fold change vs veh, COG3 / RFU, DIAPH2 / Fold change vs veh, DIAPH2 / RFU, SKA2 / Fold change vs veh, SKA2 / RFU, AFF3 / Fold change vs veh, AFF3 / RFU, LMF1 / Fold change vs veh, LMF1 / RFU, IPO11 / Fold change vs veh, IPO11 / RFU, DFFB / Fold change vs veh, DFFB / RFU, FOXP1 / Fold change vs veh, FOXP1 / RFU, CARD8 / Fold change vs veh, CARD8 / RFU, STRN3 / Fold change vs veh, STRN3 / RFU, ADK / Fold change vs veh, ADK / RFU, RASSF2 / Fold change vs veh, RASSF2 / RFU, WIPF1 / Fold change vs veh, WIPF1 / RFU, LARP1B / Fold change vs veh, LARP1B / RFU, RASA1 / Fold change vs veh, RASA1 / RFU, RB1 / Fold change vs veh, RB1 / RFU, PPFIA1 / Fold change vs veh, PPFIA1 / RFU, MAT2A / Fold change vs veh, MAT2A / RFU, CCT5 / Fold change vs veh, CCT5 / RFU, WDR92 / Fold change vs veh, WDR92 / RFU, CUX1 / Fold change vs veh, CUX1 / RFU, TTC7A / Fold change vs veh, TTC7A / RFU, TMEM135 / Fold change vs veh, TMEM135 / RFU, DEPTOR / Fold change vs veh, DEPTOR / RFU, CPM / Fold change vs veh, CPM / RFU, DNAJB6 / Fold change vs veh, DNAJB6 / RFU, CACNA2D3 / Fold change vs veh, CACNA2D3 / RFU, DTX4 / Fold change vs veh, DTX4 / RFU, TFCP2 / Fold change vs veh, TFCP2 / RFU, GMCL1 /// GMCL1P1 / Fold change vs veh, GMCL1 /// GMCL1P1 / RFU, AEBP2 / Fold change vs veh, AEBP2 / RFU, SNHG1 /// SNORD22 /// SNORD25 /// SNORD26 /// SNORD27 /// SNORD28 /// SNORD29 /// SNORD31 / Fold change vs veh, SNHG1 /// SNORD22 /// SNORD25 /// SNORD26 /// SNORD27 /// SNORD28 /// SNORD29 /// SNORD31 / Fold change (Aza/veh), C12orf56 (ProbeSet 11735607_a_at) / Fold change (ACY-1035/veh), C12orf56 (ProbeSet 11735607_a_at) / Fold change (Aza/veh), FGFR1OP (ProbeSet 11751329_s_at) / Fold change (ACY-1035/veh), FGFR1OP (ProbeSet 11751329_s_at) / Fold change (Aza/veh), VPS36 (ProbeSet 11739960_a_at) / Fold change (ACY-1035/veh), VPS36 (ProbeSet 11739960_a_at) / RFU SYPL1 (11715823_x_at) / Fold change /veh SYPL1 (11715823_x_at) / RFU IGFBP7 (11715501_s_at) / Fold change /veh IGFBP7 (11715501_s_at) / RFU REEP3 (11722064_at) / Fold change /veh REEP3 (11722064_at) / RFU IGLL1 (11728026_x_at) / Fold change /veh IGLL1 (11728026_x_at): dose or concentration left out as unconfirmed
Conditions: ProbeSet 11732165_x_at; LIST D

Nc1ncn([C@@H]2O[C@H](CO)[C@@H](O)[C@H]2O)c(=O)n1 [azacitidine]
RFU, LMF1: 50.31 RFU
